Experimental findings from PMC12040169 (PLOS Biology, 2025) are described below.

Each structure is given as a SMILES string.

The nature of this data set: in vitro. Conditions: human, hela cells, % viability.
For orientation: viability means a read-out of living cells in per cent, often relative to untreated cells. `CN1CCN(CCOC(=O)N2CCCC(F)(F)C2)CC1` [CBK200208]: the viability at 28.5 h, 10 µM is 105%.
In the case of `O=C(c1ccc2nccnc2c1)N1CCN(c2ccccc2)CC1` [CBK200209], the viability at 28.5 h, 10 µM came to 92.9%.
As for `O=C(COc1cccnc1)N1CCN(c2ccccc2)CC1` [CBK200210], the viability at 28.5 h, 10 µM turned out to be 106%.
`CN1CCC(C(=O)N2CCN(c3ccccc3)CC2)CC1` [CBK200211]: the viability at 28.5 h, 10 µM was 93.5%.
As for `Cc1cc2ncn(CC(=O)NCc3ccccc3)c2cc1C` [CBK200213], the viability at 28.5 h, 10 µM was determined as 104%.
With `O=C(CN1CCOCC1)N1CCN(CCc2ccccc2)CC1` [CBK200215], the viability at 28.5 h, 10 µM came to 91.4%.
As to `CN1CCC(C(=O)N2CCN(CCc3ccccc3)CC2)CC1` [CBK200216], the viability at 28.5 h, 10 µM came out at 103%.
Turning to `O=C(NC1CCCC1)c1ccc2nccnc2c1` [CBK200217], the viability at 28.5 h, 10 µM was 102%.
Regarding `Cc1ccc(NC(=O)c2cnc3ccccc3n2)c(C)n1` [CBK200218], the viability at 28.5 h, 10 µM stood at 97.7%.
With `Cc1cc2ncn(CC(=O)Nc3c(C)noc3C)c2cc1C` [CBK200222] the figure was 79.5%; with `O=C(c1cncnc1)N1Cc2ccccc2C1` [CBK200223], 106%.
With `O=C(c1cnccn1)N1CCN(CCc2ccccc2)CC1` [CBK200224] the figure was 101%.
Then `O=C(c1csnn1)N1CCN(CCc2ccccc2)CC1` [CBK200228], with 96.6%; and `CCOc1ccsc1C(=O)N1CCN(CCc2ccccc2)CC1` [CBK200229], with 91.5%; and `O=C(c1cscn1)N1CCN(CCc2ccccc2)CC1` [CBK200230], with 106%.
Turning to `C[C@@H]1CN(C(=O)c2cn(C)c3ccccc23)C[C@H](C)O1` [CBK200235], the viability at 28.5 h, 10 µM was found to be 88.9%.
`O=C(NC1CCCC1)c1ccnc2ccccc12` [CBK200237]: the viability at 28.5 h, 10 µM amounted to 92.6%.
Turning to `Cc1cc(C(=O)NC2CCCC2)n[nH]1` [CBK200240], the viability at 28.5 h, 10 µM was found to be 94.2%.
As for `O=C(OCCN1CCOCC1)N1CCN(c2ccccc2)CC1` [CBK200242], the viability at 28.5 h, 10 µM came to 90.3%.
With `CCN1CCN(C(=O)c2c[nH]c3ccccc23)CC1` [CBK200245] the figure was 103%; with `CCN1CCN(C(=O)c2cccc3[nH]ccc23)CC1` [CBK200246], 110%; with `CCOc1ccsc1C(=O)N1CCN(CC)CC1` [CBK200250], 125%.
Consider `CCN1CCN(C(=O)c2c(-c3ccccc3)noc2C)CC1` [CBK200251], for which the viability at 28.5 h, 10 µM was 96.5%.
Then `CCN1CCN(C(=O)Cc2ccc(N(C)C)cc2)CC1` [CBK200253], with 82.2%; and `O=C(NC1Cc2ccccc2C1)c1cncnc1` [CBK200262], with 119%.
Turning to `O=C(c1cnc2ccccc2n1)N1CCC(F)CC1` [CBK200264], the viability at 28.5 h, 10 µM amounted to 93.4%.
As to `CN1CCN(c2ccc(C(=O)N3CCC(F)CC3)cc2)CC1` [CBK200265], the viability at 28.5 h, 10 µM came out at 109%.
In the case of `Cc1cc2ncn(CC(=O)N3CCC(F)CC3)c2cc1C` [CBK200266], the viability at 28.5 h, 10 µM was found to be 104%.
Then `O=C(c1cncnc1)N1CCc2ccccc21` [CBK200272], with 102%.
Regarding `O=C(Cc1c[nH]c2ccccc12)N1CCC(F)CC1` [CBK200274], the viability at 28.5 h, 10 µM was 118%.
Then `O=C(CCc1cccnc1)N1CCC(F)CC1` [CBK200275], with 103%; and `Cc1cc(C(=O)N2CCC(F)CC2)n[nH]1` [CBK200277], with 109%; and `O=C(c1cccnc1)N1CCc2ccccc21` [CBK200279], with 121%.
Turning to `O=C(c1ccnc2ccccc12)N1CCc2ccccc21` [CBK200283], the viability at 28.5 h, 10 µM is 103%.
Then `O=C(c1ccc[nH]1)N1CCc2ccccc21` [CBK200285], with 72.6%; and `CN1CCN(CCOC(=O)N2CCSCC2)CC1` [CBK200288], with 94.7%; and `Cc1ccc(C(=O)Nc2ccc(C)nc2C)cn1` [CBK200289], with 89.6%.
Consider `Cc1ccc(NC(=O)c2cnc3ccccc3c2)c(C)n1` [CBK200290], for which the viability at 28.5 h, 10 µM was 99.1%.
With `Cc1ccc(NC(=O)Cc2ccc(N(C)C)cc2)c(C)n1` [CBK200295], the viability at 28.5 h, 10 µM was 104%.
As for `Cc1ccc(NC(=O)c2nc3ccccc3[nH]2)c(C)n1` [CBK200296], the viability at 28.5 h, 10 µM was determined as 94.4%.
As for `Cc1noc(C)c1NC(=O)c1ccccn1` [CBK200299], the viability at 28.5 h, 10 µM is 95.6%.
As to `COc1ccc(C(=O)Nc2c(C)noc2C)c(OC)n1` [CBK200300], the viability at 28.5 h, 10 µM was found to be 104%.
Turning to `Cc1noc(C)c1NC(=O)c1n[nH]c2ccccc12` [CBK200301], the viability at 28.5 h, 10 µM came to 104%.
Consider `Cc1noc(C)c1NC(=O)c1cccn1C` [CBK200304], for which the viability at 28.5 h, 10 µM turned out to be 101%.
Take `Cc1noc(C)c1NC(=O)c1c(C)noc1C` [CBK200305]: the viability at 28.5 h, 10 µM came out at 96.4%.
Then `Cc1noc(C)c1NC(=O)c1cnccc1C(F)(F)F` [CBK200306], with 99.1%; and `COc1ncccc1C(=O)Nc1c(C)noc1C` [CBK200307], with 103%.
Regarding `Cc1noc(C)c1NC(=O)c1ccc2ncccc2c1` [CBK200308], the viability at 28.5 h, 10 µM was determined as 104%.
As for `Cc1noc(C)c1NC(=O)c1nccc2ccccc12` [CBK200310], the viability at 28.5 h, 10 µM turned out to be 93.3%.
With `Cc1noc(C)c1NC(=O)c1cc2ccccc2n1C` [CBK200311], the viability at 28.5 h, 10 µM was 108%.
`Cc1noc(C)c1NC(=O)c1cn(C)c2ccccc12` [CBK200312]: the viability at 28.5 h, 10 µM amounted to 87.3%.
On to `Cc1nc(C)c(C(=O)Nc2c(C)noc2C)s1` [CBK200313], for which the viability at 28.5 h, 10 µM turned out to be 105%.
`Cc1noc(C)c1NC(=O)c1c(-c2ccccc2)noc1C` [CBK200314]: the viability at 28.5 h, 10 µM turned out to be 91.8%.
`COc1ccc(C(=O)N2Cc3ccccc3C2)c(OC)n1` [CBK200317]: the viability at 28.5 h, 10 µM came out at 103%.
Consider `O=C(c1n[nH]c2ccccc12)N1CCc2ccccc2C1` [CBK200330], for which the viability at 28.5 h, 10 µM was 94.4%.
Then `O=C(c1c[nH]c2ccccc12)N1CCc2ccccc2C1` [CBK200331], with 113%; and `Cn1cc(C(=O)N2CCc3ccccc3C2)c2ccccc21` [CBK200338], with 90%.
Then `CN(C)c1ccc(CC(=O)N2CCc3ccccc3C2)cc1` [CBK200340], with 93.7%.
`O=C(c1nc2ccccc2[nH]1)N1CCc2ccccc2C1` [CBK200341]: the viability at 28.5 h, 10 µM stood at 100%.
As to `O=C(c1cscn1)N1CCc2ccccc2C1` [CBK200342], the viability at 28.5 h, 10 µM worked out at 96.6%.
With `O=C(Cc1ccccn1)N1CCCc2ccccc21` [CBK200343] the figure was 105%; with `O=C(CCc1cccnc1)N1CCCc2ccccc21` [CBK200344], 100%; with `Cc1nc(C)c(C(=O)N2CCCc3ccccc32)s1` [CBK200345], 112%.
For `CN(C)c1ccc(CC(=O)N2CCCc3ccccc32)cc1` [CBK200347], the viability at 28.5 h, 10 µM was determined as 83.6%.
With `Cc1noc(C)c1C(=O)NC1Cc2ccccc2C1` [CBK200350] the figure was 91.4%; with `O=C(CCc1cccnc1)NC1Cc2ccccc2C1` [CBK200352], 97.4%; with `O=C(NC1Cc2ccccc2C1)c1cnccc1C(F)(F)F` [CBK200353], 98.6%.
As to `O=C(NC1Cc2ccccc2C1)c1ccc2ncccc2c1` [CBK200354], the viability at 28.5 h, 10 µM is 96.2%.
For the compound `O=C(NC1Cc2ccccc2C1)c1ccc2ccccc2n1` [CBK200355], the viability at 28.5 h, 10 µM is 81.8%.
With `Cc1nc(C)c(C(=O)NC2Cc3ccccc3C2)s1` [CBK200357] the figure was 91.2%.
For the compound `O=C(NC1Cc2ccccc2C1)c1nc2ccccc2[nH]1` [CBK200361], the viability at 28.5 h, 10 µM is 102%.
For `O=C(NC1Cc2ccccc2C1)c1cscn1` [CBK200363], the viability at 28.5 h, 10 µM amounted to 93.5%.
With `O=C(CCN1CCCCC1)NC1Cc2ccccc2C1` [CBK200364], the viability at 28.5 h, 10 µM is 98.3%.
On to `O=C(NCc1ccccc1)c1ccc2[nH]nnc2c1` [CBK200368], for which the viability at 28.5 h, 10 µM came out at 86.9%.
For the compound `C[C@@H]1CN(C(=O)c2cncn2C)C[C@H](C)O1` [CBK200370], the viability at 28.5 h, 10 µM came out at 90.3%.
For `C[C@@H]1CN(C(=O)c2cscn2)C[C@H](C)O1` [CBK200371], the viability at 28.5 h, 10 µM was found to be 90%.
`O=C(Cn1cnnn1)NC1CCCC1` [CBK200372]: the viability at 28.5 h, 10 µM came out at 94.9%.
`CCN1CCN(C(=O)c2cnccn2)CC1` [CBK200373]: the viability at 28.5 h, 10 µM amounted to 81.6%.
For the compound `CCN1CCN(C(=O)c2csnn2)CC1` [CBK200376], the viability at 28.5 h, 10 µM came out at 92.5%.
With `CCN1CCN(C(=O)c2cc(C)[nH]n2)CC1` [CBK200377] the figure was 108%; with `CCN1CCN(C(=O)COc2cccnc2)CC1` [CBK200378], 94.8%; with `Cc1ccc(NC(=O)c2cncnc2)c(C)n1` [CBK200380], 81.1%.
On to `Cc1noc(C)c1NC(=O)CN1CCOCC1` [CBK200381], for which the viability at 28.5 h, 10 µM stood at 103%.
Regarding `Cc1ccc(NC(=O)Cc2ccncc2)c(C)n1` [CBK200385], the viability at 28.5 h, 10 µM turned out to be 90%.
As to `Cc1ccc(NC(=O)CCc2cccnc2)c(C)n1` [CBK200386], the viability at 28.5 h, 10 µM is 101%.
Take `Cc1ccc(NC(=O)CN(C)C)c(C)n1` [CBK200388]: the viability at 28.5 h, 10 µM was 99.6%.
With `Cc1noc(C)c1NC(=O)c1ccncc1` [CBK200389], the viability at 28.5 h, 10 µM turned out to be 89.9%.
With `Cc1noc(C)c1NC(=O)CCc1cccnc1` [CBK200392], the viability at 28.5 h, 10 µM is 99.6%.
On to `Cc1cc(C(=O)Nc2c(C)noc2C)n[nH]1` [CBK200395], for which the viability at 28.5 h, 10 µM worked out at 87.4%.
As for `Cc1noc(C)c1NC(=O)c1cscn1` [CBK200397], the viability at 28.5 h, 10 µM was found to be 95.2%.
With `Cc1ncccc1C(=O)N1CCC(F)CC1` [CBK200398] the figure was 85.4%; with `COCCC(=O)N1CCC(F)CC1` [CBK200399], 99.1%.
